Publication PMC7865627, “Small Molecule-Based Prodrug Targeting Prostate Specific Membrane Antigen for the Treatment of Prostate Cancer” (Cancers, 2021)
*1 amine or outer side, *2 acyl side, *3 side chain or, on linkers, in order; H or OH if unused. Where a SMILES comes first, the peptide text is derived from it. Bridges are numbered along the chain shown (N, C = ends). Roman numbers before positions name the chains, in order. [ ]: non-standard residue; d: D form. The star is where a group is joined. Hexanoyl(6-succinimido-3yl) = O=C1CC([*:1])C(=O)N1CCCCCC(=O)[*:2]; Dolaproine = CO[C@@H]([C@@H]1CCCN1)[C@@H](C)C(=O)O; Dil = CC[C@H](C)[C@H](NC)[C@@H](CC(=O)O)OC; γGlu = O=C(O)[C@H](CCC(=O)[*:2])N[*:1]; PABC = O=C(OCc1ccc(N[*:1])cc1)[*:2]; X2 = C[C@@H](N*)[C@@H](O)c1ccccc1; X1 = O=C(C1CCC(CN[*:1])CC1)[*:2]; Cit = NC(=O)NCCC[C@H](N)C(=O)O; NMeV = CN[C@H](C(=O)O)C(C)C; CO = O=C([*:1])[*:2]; Ahx = NCCCCCC(=O)O

System: heterotopic PC3flu tumors
Assay: Heterotopic PC3flu versus PC3pip tumor study
Type: in vivo, mouse
Conditions: 955 nmol/kg every 4 days, five doses, n = 5, p = 0.0493
Protocol: Male athymic nude mice were implanted subcutaneously with 1 × 10^6 of PC3pip cells 100 μL of matrigel. When tumor size reached approximately 100 mm^3 (tumor volume = Length × width^2/2), mice received drugs through tail vein injection every 4 days with a total of five doses. Mice were treated every 4 days with a total of five doses. Animals were weighed and tumor size measured every other day for 90 days. Cures were defined as no tumor present at end of the 90-day study. When tumors became too large or animals were moribund they were euthanized. Five mice were used in each group. […]
drugs through tail vein inject every 4 days with total of 5 injections as indicated by the red arrows.
Each group had 5 mice. Values are mean ± SD of 5 animals. The plots stopped when animals died during the experiments since values are represent as mean ± SD of 5 animals.
(nmol/kg) Tumor Growth (nmol/kg) Therapeutic Index *
*: Therapeutic index is defined by MTD/effective dose.
PC3flu tumors. Treatment were scheduled every 4 days with a total of five doses as indicated by the red arrow. Each group had 5 mice. For tumor growth curves and body weight curves, values are mean ± SD of 5 animals. The plots stopped when animals died during the experiments since values are represent as mean ± SD of 5 animals. (A) Tumor growth curves of mice treated with 955 nmol/kg of PSMA-1-VcMMAE. […]

Question: Which “inhibition of PC3pip versus PC3flu tumor growth (in words)” value does the source give for `CC[C@H](C)[C@@H]([C@@H](CC(=O)N1CCC[C@H]1[C@H](OC)[C@@H](C)C(=O)N[C@H](C)[C@@H](O)c1ccccc1)OC)N(C)C(=O)[C@@H](NC(=O)[C@H](C(C)C)N(C)C(=O)OCc1ccc(NC(=O)[C@H](CCCNC(N)=O)NC(=O)[C@@H](NC(=O)CCCCCN2C(=O)CC(SC[C@H](NC(=O)[C@@H](CCC(=O)O)NC(=O)[C@@H](CCC(=O)O)NC(=O)[C@@H](CCC(=O)O)NC(=O)CCCCCNC(=O)C3CCC(CNC(=O)CC[C@H](NC(=O)N[C@@H](CCC(=O)O)C(=O)O)C(=O)O)CC3)C(=O)NCCCCCC(=O)N[C@@H](CCCCN)C(N)=O)C2=O)C(C)C)cc1)C(C)C` (stereo partly shown) [PSMA-1-VcMMAE] (I: {Glu-CO-γGlu}-[X1][Ahx][dE][dE][dE]C[Ahx]K-NH2 / II: V[Cit][PABC][NMeV]V[Dil][Dolaproine]-X2; linker I:6-II:N via Hexanoyl(6-succinimido-3yl)) here?
Answer: Its value is “significantly more effective at inhibiting PSMA-positive PC3pip tumor growth than PSMA-negative PC3flu tumor growth”.
